Experimental data from US12643861B2, “Crystalline form of fluvatinib or fluvatinib methanesulfonate and preparation method therefor” (CHONGQING PHARMACEUTICAL RESEARCH INSTITUTE CO., LTD, priority 2020, dated 2026).
Counter-ions that a name gives are not always drawn. Like-named read-outs stand apart in the source and are kept apart here.

Tests used:
Assay type in all cases: physicochemical
[1] = Stability of crystalline form I of fluvatinib mesylate stirred in acetone, ethanol, ethyl acetate, XRPD; details: acetone or ethyl acetate, stirred 10 h at room temperature
Protocol: The crystalline form I of fluvatinib mesylate was stored in acetone, ethanol and ethyl acetate to investigate whether there was a crystal transformation.
3 parts of about 50 mg the crystalline form I of fluvatinib mesylate were weighed and respectively added to reaction flasks containing an appropriate amount of acetone, ethanol, or ethyl acetate solvent. The suspension samples were placed on magnetic stirrers, stirred for 10 h at room temperature, and filtered. The filter cake was dried at 40-50° C. with spinning under reduced pressure. The obtained dry samples were detected by XRPD.

[2] = Dynamic vapor sorption (DVS) hygroscopicity
Protocol: At the same time, the crystalline form I of fluvatinib mesylate was tested for dynamic hygroscopicity by DVS to detect water content. […] This indicates again that the crystalline form I of fluvatinib mesylate has good stability.
The crystalline form III of fluvatinib mesylate was tested for hygroscopicity under humidity conditions of 25° C., 0-90% RH, using a dynamic moisture tester a dynamic vapor sorption (DVS) analyzer.

[3] = Hydrothermal stability of the crystalline forms of fluvatinib mesylate, XRPD; details: Table 11
Protocol: The crystalline forms I, III, IV, V, VI, and VII of fluvatinib mesylate of the present disclosure were placed in harsh environments to investigate their stability. They were placed under high temperature and high humidity conditions: 25° C. 92.5% R.H for 7 days, 40° C. 75% R.H for 14 days, and 60° C. for 14 days, and then detected by XRPD.

[4] = Crystalline form stability on tableting and storage of tablets, XRPD; details: for crystal transformation during the process of preparing tablets: direct compression tablets, 30% crystalline form; for crystal transformation after the tablets being placed for 6 months: 40° C., 75% RH
Protocol: The formula amounts of the crystalline form of fluvatinib mesylate, anhydrous lactose and direct compression starch were mixed, and then mixed with magnesium stearate. The mixture was prepared into tablets by direct compression method, with each table weighed 200 mg.
The crystalline forms before and after being prepared into tablets and after the tablets being placed in 40° C., 75% RH environment for 6 months were detected by XRPD. The results are shown in FIGS. 19 and 20, wherein A, B, and C represent XRPD patterns of the crystalline form before and after being prepared into tablets and after the tablets being placed for 6 months.

[5] = Stability under high temperature and high humidity for half of a month or 3 months
[6] = Crystal transformation test of crystalline form I of fluvatinib stirred in solvents, XRPD; details: 40° C.
Protocol: The crystalline form I of fluvatinib was placed in an organic solvent and a water-containing organic solvent, and stirred at 40° C. for 2 days to investigate whether there was a crystal transformation.
A number parts of about 30 mg of the crystalline form I of fluvatinib (Form I) were respectively weighed and added to different glass bottles, and added with an appropriate amount of a single organic solvent or a mixture containing water (see Table 8) to form suspensions. The above-mentioned suspension samples were placed on magnetic stirrers (40° C.) to perform a stirring test. After being stirring at 40° C. for 2 days, the suspension samples were filtered. The filter cake samples were then dried overnight in a vacuum dry box (40° C.), and the dried samples were detected by XRPD (see Table 8 and FIG. 14).

[7] = Crystal transformation of fluvatinib mesylate crystalline forms stirred in ethanol, XRPD
Protocol: The crystalline form of the fluvatinib methanesulfonate was investigated on its stability in ethanol, to see whether there is crystal transformation.
About 0.15 g of the crystalline forms II (Form II), III (Form III), VI (Form VI) and VII (Form VII) of the fluvatinib mesylate were weighed and respectively added to reaction flasks containing ethanol, stirred magnetically for 2 days at room temperature, and filtered. The filter cakes were dried at 40-50° C. with spinning under reduced pressure. The obtained dried samples were detected by XRPD.

[8] = Stability of crystalline form III of fluvatinib mesylate in air (oxygen gas), oxidation; details: exposed to air
Source text: To investigate the stability of the crystalline form III of fluvatinib mesylate (Form III), Form III was exposed to air and contacted with oxygen.

[9] = High temperature suspension experiment (50° C.) in organic solvents, XRPD; details: 25 mg, 24 hours
Protocol: The crystalline form III of fluvatinib mesylate was subjected to high temperature suspension experiments (50° C.), to investigate whether the crystalline form III of fluvatinib mesylate undergoes crystal transformation in various type of common organic solvents, and whether it is stable. The crystalline form III of fluvatinib mesylate was suspended in 12 types of organic solvents (in 1 mL of solvent) and water as set forth in Table 10 at a temperature of 50° C. and an amount of about 25 mg for 24 hours. The solids after being suspended in the organic solvents were detected by XRPD.

[10] = Solubility compared with lenvatinib; details: method or value not given
[11] = listed as crystalline forms of fluvatinib
[12] = ethanol, stirred 2 days at room temperature
[13] = stirred in ethanol for 2-4 days

## COc1cc2nccc(Oc3ccc(NC(=O)NC4CC4)c(Cl)c3F)c2cc1C(N)=O [crystalline form I of fluvatinib mesylate] [fluvatinib methanesulfonate]
[1]
  crystal transformation in single solvent: maintained its form
[2]; 25° C./80% RH
  hygroscopic weight gain: 1.3%
[2]; XRPD before and after DVS
  crystal transformation after DVS measurements: did not undergo crystal transformation
[3]
  crystal transformation under high temperature and high humidity conditions: did not undergo crystal transformation
[4]
  crystal transformation during the process of preparing tablets: neither the crystalline form I of fluvatinib mesylate nor the crystalline form III of fluvatinib mesylate undergoes crystal transformation
  crystal transformation after the tablets being placed for 6 months: no crystal transformation occurred
[5]
  change of content of related impurities / related substances: no apparent change
  crystal transformation: did not show crystal transformation

## COc1cc2nccc(Oc3ccc(NC(=O)NC4CC4)c(Cl)c3F)c2cc1C(N)=O [crystalline form I of fluvatinib, 4-(2-fluoro-3-chloro-(cyclopropylaminocarbonyl)aminophenoxy)-7-methoxy-6-quinolinecarboxamide]
[6]; THF 0.4 mL
  crystalline form after stirring for 2 days: Form I
[6]; THF-water (1:1) 0.4 mL
  crystalline form after stirring for 2 days: Form I
[6]; acetone 0.4 mL
  crystalline form after stirring for 2 days: Form I
[6]; acetone-water (1:2) 0.4 mL
  crystalline form after stirring for 2 days: Form I
[6]; ethanol 0.4 mL
  crystalline form after stirring for 2 days: Form I
[6]; ethanol-water (3:1) 0.4 mL
  crystalline form after stirring for 2 days: Form I
[6]; ethyl acetate 0.4 mL
  crystalline form after stirring for 2 days: Form I
[6]; isopropanol 0.4 mL
  crystalline form after stirring for 2 days: Form I
[6]; isopropanol-water (1:1) 0.4 mL
  crystalline form after stirring for 2 days: Form I
[6]; methanol 0.4 mL
  crystalline form after stirring for 2 days: Form I
[6]; methanol-water (3:1) 0.4 mL
  crystalline form after stirring for 2 days: Form I
[5]; [11]
  change of content of related impurities / related substances: no change
  crystal transformation: no occurrence of crystal transformation

## COc1cc2nccc(Oc3ccc(NC(=O)NC4CC4)c(Cl)c3F)c2cc1C(N)=O [crystalline form II of fluvatinib mesylate] [fluvatinib methanesulfonate]
[7]; [12]
  crystal transformation in ethanol: converted to Form III
[7]; [13]
  crystal transformation in ethanol: transformed into the crystalline form III

## COc1cc2nccc(Oc3ccc(NC(=O)NC4CC4)c(Cl)c3F)c2cc1C(N)=O [crystalline form III of fluvatinib mesylate] [fluvatinib methanesulfonate]
[2]; 25° C., 0-90% RH
  hygroscopic weight: 0.44%
[8]; 20-30° C., 0 hour
  Stability data in oxygen gas, oxidation: 93.66%
[8]; 20-30° C., 24 hours
  Stability data in oxygen gas, oxidation: 94.10%
[8]; 60° C., 0 hour
  Stability data in oxygen gas, oxidation: 93.61%
[8]; 60° C., 24 hours
  Stability data in oxygen gas, oxidation: 94.00%
[7]; [12]
  crystal transformation in ethanol: did not undergo crystal transformation
[7]; [13]
  crystal transformation in ethanol: did not undergo crystal transformation
[9]; 1.4-dioxane 1 mL
  XRD results: Form III
[9]; acetone 1 mL
  XRD results: Form III
[9]; acetonitrile 1 mL
  XRD results: Form III
[9]; cyclohexane 1 mL
  XRD results: Form III
[9]; dichloromethane 1 mL
  XRD results: Form III
[9]; ethanol 1 mL
  XRD results: Form III
[9]; ethyl acetate 1 mL
  XRD results: Form III
[9]; isopropanol 1 mL
  XRD results: Form III
[9]; n-heptane 1 mL
  XRD results: Form III
[9]; n-hexane 1 mL
  XRD results: Form III
[9]; tetrahydrofuran 1 mL
  XRD results: Form III
[3]
  crystal transformation under high temperature and high humidity conditions: did not undergo crystal transformation
[4]
  crystal transformation during the process of preparing tablets: neither the crystalline form I of fluvatinib mesylate nor the crystalline form III of fluvatinib mesylate undergoes crystal transformation
  crystal transformation after the tablets being placed for 6 months: no crystal transformation occurred
[5]
  change of content of related impurities / related substances: no apparent change
  crystal transformation: did not show crystal transformation
[10]
  solubility: better than that of lenvatinib

## COc1cc2nccc(Oc3ccc(NC(=O)NC4CC4)c(Cl)c3F)c2cc1C(N)=O [crystalline form V of fluvatinib mesylate] [fluvatinib methanesulfonate]
[3]
  crystal transformation under high temperature and high humidity conditions: undergone crystal transformation

## COc1cc2nccc(Oc3ccc(NC(=O)NC4CC4)c(Cl)c3F)c2cc1C(N)=O [crystalline form VI of fluvatinib mesylate] [fluvatinib methanesulfonate]
[7]; [12]
  crystal transformation in ethanol: converted to Form III
[7]; [13]
  crystal transformation in ethanol: transformed into the crystalline form III
[3]
  crystal transformation under high temperature and high humidity conditions: undergone crystal transformation

## COc1cc2nccc(Oc3ccc(NC(=O)NC4CC4)c(Cl)c3F)c2cc1C(N)=O [crystalline form VII of fluvatinib mesylate] [fluvatinib methanesulfonate]
[7]; [12]
  crystal transformation in ethanol: converted to Form III
[7]; [13]
  crystal transformation in ethanol: transformed into the crystalline form III
[3]
  crystal transformation under high temperature and high humidity conditions: undergone crystal transformation
